In patent publication US20250136570A1 (Tango Therapeutics, Inc., priority 2021, published 2025):

How the values were obtained:
HDAC3/NCor2 = HDAC3/NCor2 (Homo sapiens (Human), UniProt O15379); assay: HDAC3 inhibition, Fluor de Lys fluorescent enzyme assay; type: biochemical; conditions: 3 hours pre-incubation at room temp; 1.2 nM enzyme; 16 μM Fluor de Lys substrate; duplicate
Summary of the method: (§1)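 Enzyme (HDAC1 6 nM, HDAC3/NCor2 1.2 nM final) pre-incubated with compound 3 h at ~22 °C in Tris pH 8 buffer with 0.01% BSA. Reaction run 1 h with 16 μM Fluor de Lys substrate and stopped with TSA-containing developer. Fluorescence read at Ex 360/Em 460; IC50 from an occupancy equation with Hill coefficient, in duplicate.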

Recombinant HDAC1 = Recombinant HDAC1 (Homo sapiens (Human), UniProt Q13547); assay: HDAC1 inhibition, Fluor de Lys fluorescent enzyme assay; type: biochemical; conditions: 3 hours pre-incubation at room temp; 6 nM enzyme; 16 μM Fluor de Lys substrate; duplicate
Summary of the method: as §1

Sequence of HDAC3/NCor2 (O15379 whole entry): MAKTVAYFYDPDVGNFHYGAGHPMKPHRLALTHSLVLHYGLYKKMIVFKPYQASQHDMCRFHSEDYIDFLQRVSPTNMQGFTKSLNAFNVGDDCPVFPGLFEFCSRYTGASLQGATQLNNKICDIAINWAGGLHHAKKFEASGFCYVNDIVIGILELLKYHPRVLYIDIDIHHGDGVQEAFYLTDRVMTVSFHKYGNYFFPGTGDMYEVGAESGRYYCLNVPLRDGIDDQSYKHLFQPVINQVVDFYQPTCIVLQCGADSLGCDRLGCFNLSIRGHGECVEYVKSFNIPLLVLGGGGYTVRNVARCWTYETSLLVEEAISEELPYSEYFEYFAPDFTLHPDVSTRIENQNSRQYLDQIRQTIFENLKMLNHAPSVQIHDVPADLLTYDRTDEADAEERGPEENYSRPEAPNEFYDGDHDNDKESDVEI
Sequence of HDAC3/NCor2 (Q9Y618 395-489 partner): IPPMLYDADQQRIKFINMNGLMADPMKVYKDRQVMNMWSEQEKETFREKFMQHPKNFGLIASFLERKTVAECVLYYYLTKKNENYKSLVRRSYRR
Sequence of Recombinant HDAC1 (Q13547 whole entry): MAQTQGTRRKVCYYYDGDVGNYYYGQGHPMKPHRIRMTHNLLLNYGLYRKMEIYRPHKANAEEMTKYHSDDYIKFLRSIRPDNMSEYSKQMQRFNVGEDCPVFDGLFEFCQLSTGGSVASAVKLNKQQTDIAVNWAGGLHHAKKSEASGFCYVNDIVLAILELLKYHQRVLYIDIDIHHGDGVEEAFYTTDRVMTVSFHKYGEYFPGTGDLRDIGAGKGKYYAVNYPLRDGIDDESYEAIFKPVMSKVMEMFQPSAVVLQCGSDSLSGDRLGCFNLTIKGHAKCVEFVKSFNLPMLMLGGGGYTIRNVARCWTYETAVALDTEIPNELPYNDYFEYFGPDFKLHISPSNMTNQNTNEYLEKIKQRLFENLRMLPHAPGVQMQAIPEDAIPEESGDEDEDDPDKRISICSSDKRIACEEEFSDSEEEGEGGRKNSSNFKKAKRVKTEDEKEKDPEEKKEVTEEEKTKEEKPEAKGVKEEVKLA

IC50 (HDAC3/NCor2) [nM] | IC50 (Recombinant HDAC1) [nM] | Compound
500 to 2000 | < 100 | COCCS(=N)(=O)c1ccc(C(=O)Nc2cc(-c3cccs3)ccc2N)nc1 (stereo not shown) [Compound 121, N-[2-amino-5-(2-thienyl)phenyl]-5-(2-methoxyethylsulfonimidoyl)pyridine-2-carboxamide]
500 to 2000 | < 100 | N=S(=O)(c1ccc(C(=O)Nc2cc(-c3ccc(F)cc3)ccc2N)cc1)c1cccnc1 (stereo not shown) [Compound 172, N-[2-amino-5-(4-fluorophenyl)phenyl]-4-(3-pyridylsulfonimidoyl)benzamide]
